Source: PubChem BioAssay (NCI)
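Five compound concentrations were applied to cells in 96-well plates for 48 hours; endpoints were derived by simple linear interpolation of the resulting dose-response curve. GI50 = concentration required for 50% inhibition of growth. TGI: total growth inhibition.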

Experiments:
Experiment in all cases: inhibition of tumour cell growth, NCI panel, 48 h
786-0 renal = system: 786-0 renal
A498 renal = system: A498 renal
HCC-2998 colon = system: HCC-2998 colon
IGROV1 ovarian = system: IGROV1 ovarian
OVCAR-4 ovarian = system: OVCAR-4 ovarian
UACC-257 melanoma = system: UACC-257 melanoma
SK-OV-3 ovarian = system: SK-OV-3 ovarian
MDA-MB-231 breast = system: MDA-MB-231 breast
NCI/ADR-RES ovarian = system: NCI/ADR-RES ovarian
BT-549 breast = system: BT-549 breast

SMILES | TGI (786-0 renal) | TGI (A498 renal) | TGI (HCC-2998 colon) | TGI (IGROV1 ovarian) | TGI (OVCAR-4 ovarian) | TGI (UACC-257 melanoma) | TGI (SK-OV-3 ovarian) | GI50 (786-0 renal) | GI50 (A498 renal) | GI50 (HCC-2998 colon) | GI50 (IGROV1 ovarian) | GI50 (MDA-MB-231 breast) | TGI (MDA-MB-231 breast) | GI50 (NCI/ADR-RES ovarian) | TGI (NCI/ADR-RES ovarian) | GI50 (OVCAR-4 ovarian) | GI50 (SK-OV-3 ovarian) | GI50 (UACC-257 melanoma) | GI50 (BT-549 breast) | TGI (BT-549 breast)
Cc1cc(Cl)ccc1NC(=O)CC1SC(=NC(=O)c2ccccc2Cl)NC1=O (stereo unspecified) | 35.7 µM | > 100 µM | > 100 µM | > 100 µM | 38.6 µM | 38.6 µM | – | – | – | – | – | – | – | – | – | – | – | – | – | –
O=C(Nc1ccccc1)n1cc(-c2ccccn2)c(N2CCOCC2)n1 | 74.7 µM | 51.1 µM | > 100 µM | > 100 µM | > 100 µM | > 100 µM | > 100 µM | – | – | – | – | – | – | – | – | – | – | – | – | –
N#CC(C#N)=Cc1ccc(C(O)P(=O)(O)O)cc1 (stereo unspecified) | > 100 µM | > 100 µM | > 100 µM | > 100 µM | > 100 µM | > 100 µM | > 100 µM | – | – | – | – | – | – | – | – | – | – | – | – | –
CCCCOC(=O)/C=C\C(=O)NC(N)=O | 53.1 µM | 78.1 µM | 35.4 µM | 54.3 µM | 43.8 µM | 56.7 µM | > 100 µM | 20.1 µM | 29.3 µM | 19.8 µM | 20.4 µM | 17.9 µM | 42.6 µM | 27 µM | 74.3 µM | 17.1 µM | 44.9 µM | 21 µM | – | –
CC(=O)n1nnc2ccc([N+](=O)[O-])cc21 | > 100 µM | – | – | > 100 µM | > 100 µM | > 100 µM | > 100 µM | – | – | – | – | – | – | – | – | – | – | – | – | –
Cn1nc(-c2ccccc2)c2c(/C=C/c3ccc(Cl)cc3)onc2c1=O | 66 µM | – | – | > 100 µM | – | – | – | – | – | – | – | – | – | – | – | – | – | – | – | –
CCSc1nc(NC(C)c2ccccc2)c2cnn(CO)c2n1 (stereo unspecified) | > 100 µM | > 100 µM | – | > 100 µM | > 100 µM | > 100 µM | > 100 µM | 59.9 µM | 27 µM | – | > 100 µM | 61.8 µM | > 100 µM | 80.8 µM | > 100 µM | 86.4 µM | 45.8 µM | 6.91 µM | 17.7 µM | 64.1 µM
COC(=O)C(=NNc1ccccc1[N+](=O)[O-])C(=O)OC | > 100 µM | > 100 µM | > 100 µM | > 100 µM | > 100 µM | > 100 µM | > 100 µM | – | – | – | – | – | – | – | – | – | – | – | – | –
COc1ccc(NC(=S)C#N)cc1 | > 100 µM | > 100 µM | > 100 µM | – | – | > 100 µM | > 100 µM | – | – | – | – | – | > 100 µM | – | > 100 µM | – | – | – | – | > 100 µM
O=C1Nc2ccc(O)cc2/C1=C\c1ccncc1 | 39 µM | 49.9 µM | – | 41.6 µM | – | 33.3 µM | > 100 µM | 18.5 µM | 30.5 µM | – | 4.27 µM | 14.6 µM | 39.4 µM | 23.7 µM | 60.1 µM | – | 58.9 µM | 13.2 µM | 15.2 µM | 43.6 µM
CCOC(=O)NC(=O)c1cn(CCCCCCCCCCC(=O)NCCCN2CCN(CCCNC(=O)CCCCCCCCCCn3cc(C(=O)NC(=O)OCC)c(=O)[nH]c3=O)CC2)c(=O)[nH]c1=O | > 100 µM | > 100 µM | > 100 µM | – | – | > 100 µM | > 100 µM | – | – | – | – | – | – | – | – | – | – | – | – | –
N#CC(C(=O)CCC(=O)Nc1ccc(Cl)cc1)c1ccc(Cl)cc1 (stereo unspecified) | > 100 µM | > 100 µM | > 100 µM | > 100 µM | > 100 µM | > 100 µM | > 100 µM | – | – | – | – | – | – | – | – | – | – | – | – | –
